Measured values taken from BindingDB's records for doi:10.1021/acs.jmedchem.5b01008 (Pfizer, 2015).
Values joined by “and” are separate entries in the source; they are usually repeats but may differ in a detail not shown here. Identical values can stand only once.

Legend:
[1] = target: 2-acylglycerol O-acyltransferase 1 (MGAT1, MOGAT1) (Homo sapiens) (UniProt Q96PD6); assay: Inhibition of MGAT1 (unknown origin) assessed as effect on incorporation of [1-14C]decanoyl moiety into DAG using [1-14C]decanoyl-CoA and 2-oleoylglycerol as substrates
Chain of 2-acylglycerol O-acyltransferase 1 (MGAT1, MOGAT1) (Homo sapiens) (Q96PD6 whole entry, looked up): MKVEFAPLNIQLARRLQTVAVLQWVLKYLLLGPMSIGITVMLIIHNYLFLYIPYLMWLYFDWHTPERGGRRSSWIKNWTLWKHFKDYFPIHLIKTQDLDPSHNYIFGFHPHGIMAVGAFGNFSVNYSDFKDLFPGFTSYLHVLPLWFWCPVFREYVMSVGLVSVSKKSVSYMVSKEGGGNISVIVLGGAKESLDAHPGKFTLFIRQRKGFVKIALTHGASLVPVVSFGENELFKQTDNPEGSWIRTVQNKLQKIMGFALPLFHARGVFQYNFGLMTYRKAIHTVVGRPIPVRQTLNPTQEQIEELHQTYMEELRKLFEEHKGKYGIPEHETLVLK

[2] = target: 2-acylglycerol O-acyltransferase 3 (MGAT3, MOGAT3) (Homo sapiens) (UniProt Q86VF5); assay: Inhibition of MGAT3 (unknown origin) assessed effect on incorporation of [1-14C]decanoyl moiety into triacylglycerol using [1-14C]decanoyl-CoA and 1,2-didecanoyl-sn-glycerol as substrates pre-incubated for 30 mins before substrate addition
Chain of 2-acylglycerol O-acyltransferase 3 (MGAT3, MOGAT3) (Homo sapiens) (Q86VF5 whole entry, looked up): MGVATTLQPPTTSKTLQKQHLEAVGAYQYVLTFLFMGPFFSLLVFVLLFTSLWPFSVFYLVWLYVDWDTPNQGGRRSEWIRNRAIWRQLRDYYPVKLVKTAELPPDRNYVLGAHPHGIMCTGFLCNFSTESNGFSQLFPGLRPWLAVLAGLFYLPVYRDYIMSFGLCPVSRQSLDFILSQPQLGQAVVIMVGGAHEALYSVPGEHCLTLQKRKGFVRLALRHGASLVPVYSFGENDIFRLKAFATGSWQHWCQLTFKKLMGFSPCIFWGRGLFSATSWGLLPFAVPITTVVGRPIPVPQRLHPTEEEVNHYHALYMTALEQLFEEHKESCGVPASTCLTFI

[3] = target: 2-acylglycerol O-acyltransferase 3 (MGAT3, MOGAT3) (Homo sapiens) (UniProt Q86VF5); assay: Inhibition of human MGAT3 expressed in HEK293 cells assessed as effect on incorporation of [1,3-14C] glycerol into TAG by TLC method in presence of DGAT1 inhibitor PF-04620110 and DGAT2 inhibitor PF-06424439

| IC50 [1] | IC50 [2] | IC50 [3] | Structure (SMILES) |
| --- | --- | --- | --- |
| > 40000 nM | 682 nM and 631 nM |  | COc1cccc(CC(=O)N2Cc3ccc(S(=O)(=O)NCCc4cccc(F)c4)cc3C2)c1 |
|  | 2740 nM and 2510 nM |  | COc1cccc(CC(=O)N2Cc3ccc(S(=O)(=O)N(C)CCc4cccc(F)c4)cc3C2)c1 |
|  | 6 nM |  | COc1cccc(CC(=O)N2Cc3ccc(S(=O)(=O)Nc4cnn(-c5ccccc5)n4)cc3C2)c1 |
|  | 6 nM |  | COc1cccc(CC(=O)N2Cc3ccc(S(=O)(=O)Nc4cnn(-c5ccc(F)cc5)n4)cc3C2)c1 |

Second part, the molecule before the results:

| Structure (SMILES) | IC50 [1] | IC50 [2] | IC50 [3] |
| --- | --- | --- | --- |
| COc1cccc(CC(=O)N2Cc3ccc(S(=O)(=O)Nc4cnn(C)n4)cc3C2)c1 |  | 3840 nM and 3980 nM |  |
| COc1cccc(CC(=O)N2Cc3ccc(S(=O)(=O)Nc4cnn(C(C)C)n4)cc3C2)c1 |  | 597 nM and 631 nM |  |
| COc1cccc(CC(=O)N2Cc3ccc(S(=O)(=O)Nc4cnn(C5CCC5)n4)cc3C2)c1 | 14900 nM and 14800 nM | 92 nM and 100 nM | 205 nM and 204 nM |
| COc1cccc(CC(=O)N2Cc3ccc(S(=O)(=O)Nc4cnn(C5COC5)n4)cc3C2)c1 |  | 365 nM and 398 nM |  |
| COc1cccc(CC(=O)N2Cc3ccc(S(=O)(=O)Nc4cnn(C5CC(F)(F)C5)n4)cc3C2)c1 |  |  | 394 nM and 389 nM |
